Test results from patent US20120101284A1, “METHOD FOR SCREENING INHIBITOR FOR INHIBITING INTERACTION BETWEEN BETA-AMYLOID PEPTIDE AND VEGF AND INHIBITOR SEARCHED BY THE SAME” (INNOPHARMASCREEN INC., priority 2009, published 2012).
Blank lines part the entries; values can stand above or below the compound they belong to.

Experiments:
SH-SY5Y cell [1] = test: Inhibition of cytotoxicity of beta-amyloid by screened material (MTT assay); format: cell-based; conditions: standard of 10 μM beta-amyloid, at more than 5 μM, 24 hours
Procedure: The SH-SY5Y cells were added to 96-well tissue culture plate to be the cell concentration of 1×10^4 per well.

SH-SY5Y cell [2] = system: SH-SY5Y cell
From the text: PC12 Cell (Korean Cell Line Bank, Seoul, Korea) was maintained in the mixed solution of RPMI1640 (Welgene, Daegu, Korea) containing 1× Antibiotic-Antimycotic (GIBCO, N.Y., USA) and 10% FBS (Fetal Bovine Serum) (Welgene, Daegu, Korea). SH-SY5Y cell (Korean Cell Line Bank, Seoul, Korea) was maintained in the mixed solution of DMED/F12 (Welgene, Daegu, Korea) containing 1× Antibiotic-Antimycotic (GIBCO, N.Y., USA) and 10% FBS (Fetal Bovine Serum) (Welgene, Daegu, Korea). The PC12 and SH-SY5Y culture cells were maintained under the conditions of 100% humidity and 37° C. in the environment for supplying gas components with further 5% carbon dioxide.
It was performed according to a MTT [(3-(4,5-dimethylthiazol-2yl-2,5-diphenyl-2H-tetrazoilum bromide] experiment protocol. MTT was dissolved in PBS to be 5 mg/ml and then stored at 4° C. to use. After completing the reaction, 10 μl of 5 mg/ml MTT solution was added to 100 culture mixed solution of each well and then reacted for 3 hours. The supernatant of each well was discarded, and then a chromophoric reactant (Formazancrystal) was dissolved in 100 μl of DMSO; and then an absorbance was measured using ELISA reader (595 nm).
The PC12 cells were added to each of wells of Poly-D-lysine-coated 96-well tissue culture plate (Corning, Mass., USA) to be the cell concentration of 2×10^4 per well. […]

[3] = biological target: T1, binding between the beta-amyloid 1-42 peptide and VEGF165 (Homo sapiens, UniProt P15692); test: Protein chip screening of inhibitors of the binding between beta-amyloid and VEGF165; conditions: first screening, VEGF165 50 μg/ml, single concentration
T1 construct: purchased R&D System, Inc. (VEGF165); Bachem AG (beta-amyloid)
T1 sequence (P15692 27-191 isoform P15692-4): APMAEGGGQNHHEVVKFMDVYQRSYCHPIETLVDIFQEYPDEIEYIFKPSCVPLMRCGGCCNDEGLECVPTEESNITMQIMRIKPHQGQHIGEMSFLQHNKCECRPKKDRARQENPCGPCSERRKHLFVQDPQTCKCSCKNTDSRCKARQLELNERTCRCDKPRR
Procedure: ProteoChip™ (Proteogen Inc., Seoul, Korea) was used as a substrate to fix a protein. A sheet paper was adhered on the substrate to prepare Well-Chip. A beta-amyloid (Bachem AG, Bubendorf, Switzerland) was diluted with a phosphate-buffered saline (PBS) containing 30% glycerol solution to be 50 μg/ml; then added to each well; reacted at 30° C. in a humidity incubator, overnight; the beta-amyloid remained after combining was washed with a phosphate-buffered saline containing 0.05% tween-20 (0.05% PBST); dried with a nitrogen gas; and then a high-speed-high throughput screening was performed.
A mixed solution was prepared by mixing VEGF165 (50 μg/ml) and 130 compounds (50 μM) derived from a natural material obtained in Example 1 in order to experiment the inhibition of the binding between the beta-amyloid and VEGF165. […]
The beta-amyloid-tagged protein chip prepared in Example 2 was blocked with 3% BSA for 2 hours; then washed with 0.05% PBST twice; and then dried with a nitrogen gas. […] It was washed with the washing solution; then dried using a nitrogen gas; a primary antibody was added to each of wells; then reacted at 30° C. in a humidity incubator for 30 minutes; washed with the washing solution; and then dried with the nitrogen gas to measure an inhibition ability of library by analyzing the binding degree with the relative fluorescence intensity using a fluorescence laser scanner. […]

Compound: NCCCS(=O)(=O)O [Alzhemed™]
survival rate of cell increased (SH-SY5Y cell [1]): about 30%

Compound: beta-amyloid 1-42: forward-synthesized beta-amyloid 1-42 peptide
survival rate of cell (SH-SY5Y cell [2]): decreased in proportion as the concentration increase

inhibition of the interaction between beta-amyloid 1-42 peptide and VEGF165 (relative fluorescence intensity) [3]: inhibited
Compound: heparin
